# In patent US20170275275A1, “BENZENESULFONAMIDES USEFUL AS SODIUM CHANNEL INHIBITORS” (PFIZER INC., priority 2014, published 2017):
# Where a name gives a salt, the structure may show the parent alone.
# Biological target: T1, Nav1.7 (or SCN9A) channel (Homo sapiens, UniProt Q15858)
# T1 construct: expressed in transfected cells
# Assay: Nav1.7 (hSCN9A) channel block, PatchXpress (PX) whole-cell electrophysiology in stably transfected HEK cells
# Assay type: cell-based
# Conditions: HEK293; Nav1.7, PatchXpress, 30 nM; read-out: % inhibition at 30 nM dose
# Procedure: The ability of the compounds of formula (I) to block the Nav1.7 (or SCN9A) channel was measured using the assay described below.
# Human Embryonic Kidney (HEK) cells were transfected with an hSCN9A construct using lipofectamine reagent (Invitrogen), using standard techniques. Cells stably expressing the hSCN9A constructs were identified by their resistance to G-418 (400 μg/ml). Clones were screened for expression using the whole-cell voltage-clamp technique.
# HEK cells stably transfected with hSCN9A were maintained in DMEM medium supplemented with 10% heat-inactivated fetal bovine serum and 400 μg/ml G-418 in an incubator at 37° C. with a humidified atmosphere of 10% CO2. For HTS, cells were harvested from flasks by trypsinization and replated in an appropriate multi-well plate (typically 96 or 384 wells/plate) such that confluence would be achieved within 24 hours of plating. Cells were typically used for electrophysiological experiments within 24 to 72 hours after plating.
# For conventional whole-cell voltage clamp experiments cells were removed from the culture flask by brief trypsinization and re-plated at low density onto glass cover slips. Cover slips containing HEK cells expressing hSCN9A were placed in a bath on the stage of an inverted microscope and perfused (approximately 1 ml/minutes) with extracellular solution of the following composition: 138 mM NaCl, 2 mM CaCl2, 5.4 mM KCl, 1 mM MgCl2, 10 mM glucose, and 10 mM HEPES, pH 7.4, with NaOH. […] The osmolarity of the extracellular and intracellular solutions was 300 mOsm/kg and 295 mOsm/kg, respectively. All recordings were made at room temperature (22-24° C.) using AXOPATCH 200B amplifiers and PCLAMP software (Axon Instruments, Burlingame, Calif.). hSCN9A currents in HEK cells were measured using the whole-cell configuration of the patch-clamp technique (Hamill et al., 1981). Uncompensated series resistance was typically 2 to 5 mega ohms and >85% series resistance compensation was routinely achieved. […] Current records were acquired at 20 to 50 KHz and filtered at 5 to 10 KHz.
# HEK cells stably transfected with hSCN9A were viewed under Hoffman contrast optics and placed in front of an array of flow pipes emitting either control or compound-containing extracellular solutions.
# The voltage-dependence of inactivation was determined by applying a series of depolarizing prepulses (8 sec long in 10 mV increments) from a negative holding potential. The voltage was then immediately stepped to 0 mV to assess the magnitude of the sodium current. Currents elicited at 0 mV were plotted as a function of prepulse potential to allow estimation of the voltage at which 50% of the channels were inactivated (midpoint of inactivation or V1/2). Compounds were tested for their ability to inhibit hSCN9A sodium channels by activating the channel with a 20 msec voltage step […] to 0 mV following an 8 second conditioning prepulse to the empirically determined V1/2. Compound effect (% inhibition) was determined by difference in current amplitude before and after application of test compounds. For ease of comparison, “estimated IC-50” (EIC50) values were calculated from single point electrophysiology data by the following equation, (tested concentration, nM)×(100-% inhibition/% inhibition). Inhibition values <20% and >80% were excluded from the calculation.
# Electrophysiological assays were conducted with PatchXpress 7000 hardware and associated software (Molecular Devices Corp). All assay buffers and solutions were identical to those used in conventional whole-cell voltage clamp experiments described above. hSCN9A cells were grown as above to 50%-80% confluency and harvested by trypsinization. Trypsinized cells were washed and resuspended in extracellular buffer at a concentration of 1×10^6 cells/ml. The onboard liquid handling facility of the PatchXpress was used for dispensing cells and application of test compounds.
# T1 sequence (Q15858 whole entry): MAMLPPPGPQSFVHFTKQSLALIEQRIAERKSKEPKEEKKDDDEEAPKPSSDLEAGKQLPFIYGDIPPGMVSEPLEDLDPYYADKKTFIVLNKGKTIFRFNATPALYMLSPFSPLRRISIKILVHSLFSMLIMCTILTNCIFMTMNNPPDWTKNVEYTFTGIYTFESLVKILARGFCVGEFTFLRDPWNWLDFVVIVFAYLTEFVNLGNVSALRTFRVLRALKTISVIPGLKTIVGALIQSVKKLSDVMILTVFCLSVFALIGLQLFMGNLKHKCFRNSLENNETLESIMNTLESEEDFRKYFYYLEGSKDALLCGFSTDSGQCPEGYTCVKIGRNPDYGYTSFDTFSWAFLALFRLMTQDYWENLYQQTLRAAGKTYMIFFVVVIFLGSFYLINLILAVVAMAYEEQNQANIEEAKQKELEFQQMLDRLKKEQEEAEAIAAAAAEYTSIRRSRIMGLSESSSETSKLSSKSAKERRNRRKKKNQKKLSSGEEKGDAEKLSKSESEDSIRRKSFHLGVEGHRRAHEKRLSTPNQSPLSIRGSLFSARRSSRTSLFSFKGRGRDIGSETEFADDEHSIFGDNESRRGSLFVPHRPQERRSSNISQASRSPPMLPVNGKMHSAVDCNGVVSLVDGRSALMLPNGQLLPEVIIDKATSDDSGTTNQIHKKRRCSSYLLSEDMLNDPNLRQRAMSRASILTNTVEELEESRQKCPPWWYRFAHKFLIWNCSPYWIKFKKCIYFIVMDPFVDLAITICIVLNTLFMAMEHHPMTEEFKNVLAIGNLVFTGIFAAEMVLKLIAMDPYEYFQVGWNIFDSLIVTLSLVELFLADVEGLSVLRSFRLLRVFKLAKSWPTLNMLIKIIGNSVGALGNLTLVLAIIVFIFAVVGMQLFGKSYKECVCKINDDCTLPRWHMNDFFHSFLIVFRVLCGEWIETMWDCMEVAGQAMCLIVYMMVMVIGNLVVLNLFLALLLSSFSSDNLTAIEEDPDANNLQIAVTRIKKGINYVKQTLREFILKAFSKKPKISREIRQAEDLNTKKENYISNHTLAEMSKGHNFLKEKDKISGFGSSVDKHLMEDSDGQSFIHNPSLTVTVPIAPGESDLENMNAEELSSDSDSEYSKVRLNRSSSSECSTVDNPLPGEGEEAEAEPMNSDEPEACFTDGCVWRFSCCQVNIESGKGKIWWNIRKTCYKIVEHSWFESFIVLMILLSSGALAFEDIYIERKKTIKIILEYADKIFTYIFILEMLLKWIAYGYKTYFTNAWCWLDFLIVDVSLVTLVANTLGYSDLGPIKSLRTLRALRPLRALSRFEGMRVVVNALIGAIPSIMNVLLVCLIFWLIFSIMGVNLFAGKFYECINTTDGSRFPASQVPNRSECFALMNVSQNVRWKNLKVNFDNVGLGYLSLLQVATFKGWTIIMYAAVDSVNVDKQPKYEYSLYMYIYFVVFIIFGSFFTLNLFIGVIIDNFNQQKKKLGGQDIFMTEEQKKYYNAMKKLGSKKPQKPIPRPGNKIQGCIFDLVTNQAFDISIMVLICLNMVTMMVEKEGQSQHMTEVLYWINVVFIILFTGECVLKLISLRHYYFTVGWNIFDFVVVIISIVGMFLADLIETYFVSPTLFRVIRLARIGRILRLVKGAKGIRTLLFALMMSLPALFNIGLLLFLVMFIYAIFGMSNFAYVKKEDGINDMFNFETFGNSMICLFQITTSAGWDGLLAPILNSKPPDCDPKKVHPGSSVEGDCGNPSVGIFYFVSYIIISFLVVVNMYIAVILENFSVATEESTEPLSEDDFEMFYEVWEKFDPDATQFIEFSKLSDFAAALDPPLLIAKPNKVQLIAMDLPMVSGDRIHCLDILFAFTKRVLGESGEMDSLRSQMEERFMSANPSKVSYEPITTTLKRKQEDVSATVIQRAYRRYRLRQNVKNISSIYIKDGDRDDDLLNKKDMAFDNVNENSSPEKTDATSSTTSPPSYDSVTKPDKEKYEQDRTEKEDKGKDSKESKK
row,SMILES,inhibition at 0.03 µM
1,"O=S(=O)(Nc1cscn1)c1cc(Cl)c(Oc2ccc(-c3cccc(C(F)(F)F)c3)cc2-c2ccnc(CNCCC3CCNCC3)c2)cc1F [Example 2, 5-Chloro-2-fluoro-4-{[3-(2-{[(2-piperidin-4-ylethyl)amino]methyl}pyridin-4-yl)-3′-(trifluoromethyl)biphenyl-4-yl]oxy}-N-1,3-thiazol-4-ylbenzenesulfonamide]",10.7%

# Same assay, conditions: estimated IC50 from single point electrophysiology data; PatchXpress platform; HEK cells expressing hSCN9A; clamped at V1/2 of inactivation; read-out: Nav1.7 EIC50
row,SMILES,IC50
1,"CC(=O)N1CCC(CCNCc2cc(-c3cc(-c4cccc(C(F)(F)F)c4)ccc3Oc3ccc(S(=O)(=O)Nc4ncns4)cc3C#N)ccn2)CC1 [Example 1, 4-({3-[2-({[2-(1-Acetylpiperidin-4-yl)ethyl]amino}methyl)pyridin-4-yl]-3′-(trifluoromethyl)biphenyl-4-yl}oxy)-3-cyano-N-1,2,4-thiadiazol-5-ylbenzenesulfonamide]",5.8 nM
2,"O=S(=O)(Nc1cscn1)c1cc(Cl)c(Oc2ccc(-c3cccc(C(F)(F)F)c3)cc2-c2ccnc(CNCCC3CCNCC3)c2)cc1F [Example 2, 5-Chloro-2-fluoro-4-{[3-(2-{[(2-piperidin-4-ylethyl)amino]methyl}pyridin-4-yl)-3′-(trifluoromethyl)biphenyl-4-yl]oxy}-N-1,3-thiazol-4-ylbenzenesulfonamide]",> 30 nM
3,"N#Cc1cc(S(=O)(=O)Nc2ncns2)ccc1Oc1ccc(-c2ccccc2)cc1-c1cccc(C(=O)NCCN2CCNCC2)c1 [Example 3, 6′-{2-cyano-4-[(1,2,4-thiadiazol-5-ylamino)sulfonyl]phenoxy}-N-(2-piperazin-1-ylethyl)-1,1′:3′,1″-terphenyl-3-carboxamide]",1 nM
4,"N#Cc1cc(S(=O)(=O)Nc2ncns2)ccc1Oc1ccc(-c2ccccc2)cc1-c1cccc(CNCCC2CCNCC2)c1 [Example 5, 3-Cyano-4-[(3″-{[(2-piperidin-4-ylethyl)amino]methyl}-1,1′:3′,1″-terphenyl-4′-yl)oxy]-N-1,2,4-thiadiazol-5-ylbenzenesulfonamide sodium salt]",1.5 nM
5,"COCCOCCOCCOC(=O)NCc1cc(-c2cc(-c3cccc(C(F)(F)F)c3)ccc2Oc2ccc(S(=O)(=O)Nc3ncns3)cc2C#N)ccn1 [Example 8, 2-[2-(2-methoxyethoxy)ethoxy]ethyl [(4-{4-[2-cyano-4-(1,2,4-thiadiazol-5-ylsulfamoyl)phenoxy]-3′-(trifluoromethyl)biphenyl-3-yl}pyridin-2-yl)methyl]carbamate triethylammonium salt]",3.4 nM
6,"CC(=O)N1CCC(CCNCc2cccc(-c3cc(-c4ccccc4)ccc3Oc3ccc(S(=O)(=O)Nc4ncns4)cc3C#N)c2)CC1 [Example 16, 4-{[3″-({[2-(1-Acetylpiperidin-4-yl)ethyl]amino}methyl)-1,1′:3′,1″-terphenyl-4′-yl]oxy}-3-cyano-N-1,2,4-thiadiazol-5-ylbenzenesulfonamide]",0.9 nM
7,"COCCOCCOCCOCCO[C@H]1CCN(Cc2cc(-c3cc(-c4cccc(C(F)(F)F)c4)ccc3Oc3ccc(S(=O)(=O)Nc4ncns4)cc3C#N)ccn2)C1 [Example 22, (S)-4-((3-(2-((3-((2,5,8,11-tetraoxatridecan-13-yl)oxy)pyrrolidin-1-yl)methyl)pyridin-4-yl)-3′-(trifluoromethyl)-[1,1′-biphenyl]-4-yl)oxy)-3-cyano-N-(1,2,4-thiadiazol-5-yl)benzenesulfonamide hemi-trifluoroacetate salt]",2.6 nM
8,"COCCOCCOCCOCCOC1CCN(Cc2cc(-c3cc(-c4cccc(C(F)(F)F)c4)ccc3Oc3ccc(S(=O)(=O)Nc4ncns4)cc3C#N)ccn2)CC1 [Example 23, 4-((3-(2-((4-((2,5,8,11-tetraoxatridecan-13-yl)oxy)piperidin-1-yl)methyl)pyridin-4-yl)-3′-(trifluoromethyl)-[1,1′-biphenyl]-4-yl)oxy)-3-cyano-N-(1,2,4-thiadiazol-5-yl)benzenesulfonamide trifluoroacetate salt]",5 nM
9,"COCCOCCOCCOCCOCCOCCOCCOCCOCCOCCOCCOCCC(=O)N1CCN(c2cc(-c3cc(-c4ccc(C(F)(F)F)cc4)ccc3Oc3ccc(S(=O)(=O)Nc4ncns4)cc3C#N)ccn2)CC1 [Example 24, 4-((3-(2-(4-(2,5,8,11,14,17,20,23,26,29,32,35-dodecaoxaoctatriacontan-38-oyl)piperazin-1-yl)pyridin-4-yl)-4′-(trifluoromethyl)-[1,1′-biphenyl]-4-yl)oxy)-3-cyano-N-(1,2,4-thiadiazol-5-yl)benzenesulfonamide]",13.4 nM
10,"COCCOCCOCCOCCOCCOCCOCCOCCOCCOCCOCCOCCC(=O)NCc1cc(-c2cc(-c3cccc(C(F)(F)F)c3)ccc2Oc2cc(F)c(S(=O)(=O)Nc3nncs3)cc2Cl)ccn1 [Example 27, N-[(4-{4-[2-chloro-5-fluoro-4-(1,3,4-thiadiazol-2-ylsulfamoyl)phenoxy]-3′-(trifluoromethyl)biphenyl-3-yl}pyridin-2-yl)methyl]-2,5,8,11,14,17,20,23,26,29,32,35-dodecaoxaoctatriacontan-38-amide]",47.2 nM
11,"COCCOCCOCCOCCOCCOCCOCCOCCOCCOCCOCCOCCC(=O)NCc1cc(-c2cc(-c3cccc(C(F)(F)F)c3)ccc2Oc2cc(F)c(S(=O)(=O)Nc3cscn3)cc2Cl)ccn1 [Example 28, N-[(4-{4-[2-chloro-5-fluoro-4-(1,3-thiazol-4-ylsulfamoyl)phenoxy]-3′-(trifluoromethyl)biphenyl-3-yl}pyridin-2-yl)methyl]-2,5,8,11,14,17,20,23,26,29,32,35-dodecaoxaoctatriacontan-38-amide]",241 nM

# Further lines, results first:
row,IC50,SMILES
1,10.9 nM,"COCCOCCOCCOCCNC(=O)NCc1cc(-c2cc(-c3cccc(C(F)(F)F)c3)ccc2Oc2ccc(S(=O)(=O)Nc3ncns3)cc2C#N)ccn1 [Example 9, 3-cyano-4-((3-(2-(3-oxo-7,10,13,16-tetraoxa-2,4-diazaheptadecyl)pyridin-4-yl)-3′-(trifluoromethyl)-[1,1′-biphenyl]-4-yl)oxy)-N-(1,2,4-thiadiazol-5-yl)benzenesulfonamide triethylammonium salt]"
2,4.7 nM,"COCCOCCOCCOCCNCCOCc1cc(-c2cc(-c3cccc(C(F)(F)F)c3)ccc2Oc2ccc(S(=O)(=O)Nc3ncns3)cc2C#N)ccn1 [Example 10, 4-((3-(2-(2,8,11,14,17-pentaoxa-5-azaoctadecyl)pyridin-4-yl)-3′-(trifluoromethyl)-[1,1′-biphenyl]-4-yl)oxy)-3-cyano-N-(1,2,4-thiadiazol-5-yl)benzenesulfonamide]"
3,10.4 nM,"COCCOCCOCCOCCNC(=O)OCc1cc(-c2cc(-c3cccc(C(F)(F)F)c3)ccc2Oc2ccc(S(=O)(=O)Nc3ncns3)cc2C#N)ccn1 [Example 11, (4-(4-(4-(N-(1,2,4-thiadiazol-5-yl)sulfamoyl)-2-cyanophenoxy)-3′-(trifluoromethyl)-[1,1′-biphenyl]-3-yl)pyridin-2-yl)methyl (2,5,8,11-tetraoxatridecan-13-yl)carbamate]"
4,13 nM,"COCCOCCOCCOCCOCc1cc(-c2cc(-c3cccc(C(F)(F)F)c3)ccc2Oc2ccc(S(=O)(=O)Nc3ncns3)cc2C#N)ccn1 [Example 13, 3-cyano-4-({3-[2-(2,5,8,11,14-pentaoxapentadec-1-yl)pyridin-4-yl]-3′-(trifluoromethyl)biphenyl-4-yl}oxy)-N-(1,2,4-thiadiazol-5-yl)benzenesulfonamide]"
5,5 nM,"COCCOCCOCCOCCNC(=O)COCc1cc(-c2cc(-c3cccc(C(F)(F)F)c3)ccc2Oc2ccc(S(=O)(=O)Nc3ncns3)cc2C#N)ccn1 [Example 14, 2-((4-(4-(4-(N-(1,2,4-thiadiazol-5-yl)sulfamoyl)-2-cyanophenoxy)-3′-(trifluoromethyl)-[1,1′-biphenyl]-3-yl)pyridin-2-yl)methoxy)-N-(2,5,8,11-tetraoxatridecan-13-yl)acetamide]"
6,1 nM,"COCCOCCOCCOCCOC1CN(Cc2cc(-c3cc(-c4cccc(C(F)(F)F)c4)ccc3Oc3ccc(S(=O)(=O)Nc4ncns4)cc3C#N)ccn2)C1 [Example 20, hemi trifluoroacetate salt]"
